Laboratory results: patent US20240376480A1, “TREATMENT OF ELEVATED METABOLITE LEVELS USING NANOCARRIERS” (RAMOT AT TEL-AVIV UNIVERSITY LTD., priority 2021, published 2024)

How the values were obtained:
[1] = test system: aah1Δ apt1Δ yeast model; experiment: Yeast growth assay (OD600) in excess-adenine yeast model; assay type: cell-based; settings: low and high adenine concentrations (1 mg/L and 4 mg/L)
Method: Yeast growth assays: the strains used in this work were BY4741 (WT) and the adenine salvage mutant, aah1Δ apt1Δ, that was established by a disruption of both AAH1 and APT1. The strains were grown overnight at 30° C. in synthetic defined SD medium (6.7 g/L Yeast Nitrogen Base without Amino Acids (Difco) and 20 g/L glucose (Merck)) containing a specific mixture of amino acids and nucleobases (without adenine). For OD600 measurements, strains were diluted to OD600=0.01. 200 μL of cells were platted on 96 wells microplates (Greiner, F-BOTTOM) with increasing concentrations of adenine (1, 2 and 4 mg/L) and with 2.5% (V/V) of the VLP-riboswitch nano-carries and incubated at 30° C. for 25 h with continuous shaking. OD600 was measured using Tecan™ SPARK 10M plate reader.
The aah1Δ apt1Δ mutant yeast model was grown in media without adenine or in media with 1, 2, and 4 mg/L of adenine, respectively.

[2] = test system: aah1Δ apt1Δ yeast model; settings: TA added to the media; cited from earlier work
[3] = ligand adenine; cited from earlier work

Molecule	growth of the model yeast [1]	amyloid-like structures of the adenine inside the yeast [2]	Kd [3] [µM]
O=C(OC[C@H]1O[C@@H](OC(=O)c2cc(O)c(O)c(OC(=O)c3cc(O)c(O)c(O)c3)c2)[C@H](OC(=O)c2cc(O)c(O)c(OC(=O)c3cc(O)c(O)c(O)c3)c2)[C@@H](OC(=O)c2cc(O)c(O)c(OC(=O)c3cc(O)c(O)c(O)c3)c2)[C@@H]1OC(=O)c1cc(O)c(O)c(OC(=O)c2cc(O)c(O)c(O)c2)c1)c1cc(O)c(O)c(OC(=O)c2cc(O)c(O)c(O)c2)c1 [TA, tannic acid]	showed an improved growth	significant decrease	–
A58U riboswitch: pbuE adenine riboswitch with uracil substituted for adenine at position 58 (nucleic acid, expressed or natural sequence) GCGCGTTGTATAACCTCAATAATATGGTTTGAGGGTGTCTACCAGGAACCGTAAATTCCTGATTACAACGC	–	–	0.273 ± 0.017
